From patent US8022180B2, “Method for preventing and treating Alzheimer's disease” (Affiris Forschungs-und Entwicklungs GmbH, priority 2004, dated 2011)

Experiments:
[1] = test system: DAEFRH (SEQ ID NO: 26)-specific mAb; experiment: ELISA with peptide libraries (detection by biotinylated DAEFRH-specific mAb); type: binding, mice; settings: mimotopes from libraries 1-3
From the text: (§1) Mice are vaccinated with the 6mer peptide DAEFRH (SEQ ID NO: 26) (natural N-terminal Aβ42 sequence) linked to the protein bovine serum albumin BSA (to make use of the hapten-carrier-effect), emulsified in CFA (first injection) and IFA (booster injections). DAEFRH (SEQ ID NO: 26)-peptide-specific, antibody-producing hybridomas are detected by ELISA (DAEFRH (SEQ ID NO: 26)-peptide-coated ELISA plates).
As mentioned above, peptide libraries 1, 2, and 3 are generated with an Applied Biosystems 431A peptide synthesizer following classical Fmoc-chemistry. The commercially available peptide library 4 is generated according to the manufacturer's description (see above and under www.mimotopes.com). The 90 peptides are C-terminally linked to a pin.
The ELISA with each of the peptide libraries have been carried out following standard protocols:
The peptide library is dissolved in 100% DMSO (final concentration 10 mg/ml).
The peptide solution is further diluted in PBS.
The peptide mixture is coated overnight (4° C.) onto ELISA plates (Nunc Maxisorp, Germany), starting with 500 μg/well, and titrated to 100 ng/well.
The plates are washed 3× times with PBS/Tween 20 (0.1% v/v).
The plates are blocked with PBS/BSA (2 h at room temperature).
The plates are washed 3× times with PBS/Tween.
The plates are incubated with biotinylated DAEFRH (SEQ ID NO: 26)-specific mAb (10 μg/ml in PBS) for 4 h at room temperature.
The plates are incubated with streptavidin-horseradish-peroxidase (30 min at room temperature).
The plates are washed 5× times with PBS/Tween.
The plates are incubated with ABTS+H2O2 (0.1% w/v; 10 to 45 min) and the reaction is stopped with citric acid followed by photometric evaluation (wavelength 405 nm).

[2] = test system: monoclonal antibody specific for the natural N-terminal Aβ42 sequence DAEFRH; experiment: Inhibition assay: mimotope peptides compete with plate-bound DAEFRH-BSA for recognition by the biotinylated monoclonal antibody (ELISA); type: binding, mice; parameters: key to inhibition (s/m/—): s: strong inhibition; m: moderate inhibition; —: no inhibition; settings: for inhibition of epitope recognition by the monoclonal antibody (in words): FIGS. 2-9; for Inhibitory capacity of mimotopes: summary Tables 1 and 2, in words; for inhibition (s/m/—): peptides of the new screening round and 5mers with non natural amino acids
From the text: 1.: Generation of Monoclonal Antibodies (mAb) to Detect Aβ42-Derived Peptide Species with Free N-Terminus (Free Aspartic Acid at the N-Terminus)
as §1
(§2) FIGS. 2 and 3 describe the results of inhibition assays performed with mimotope peptides included in and obtained from the 5 libraries (as described). The mimotope peptides compete with the original epitope for recognition by the monoclonal antibody. Original epitope and mimotope peptides contain an additional C at the C-terminus for coupling to a protein carrier (if desired).
(§3) After blocking with PBS/BSA 1% (200 μl/well, 12 h, 4° C.), the plates are washed 3× times with PBS/Tween. Then, biotinylated monoclonal antibody (1:2000, 50 μl/well) and peptides (50 μl/well) at 50, 5, 0.5, 0.05, 0.005, and 0.0005 μg/ml are added for 20 min. at 37° C. The plates are washed 3× times with PBS/Tween and are incubated with horseradish peroxidase (HRP)-labeled streptavidin (100 μl/well, 30 min, RT). The plates are washed 5× times with PBS/Tween and are incubated with ABTS+H2O2 (0.1% w/v, 10 to 45 min) and the reaction is stopped with citric acid followed by photometric evaluation (wavelength 405 nm).
as §2, with “4” for “2”, “5” for “3”, “C-terminus (position 7)” for “C-terminus”
as §3, with “different concentrations” for “50, 5, 0.5, 0.05, 0.005, and 0.0005 μg/ml”
as §2, with “6 to 8” for “2 and 3”, “2” for “5”, “described above).” for “described).”, “C-terminus (position 7 or position 8, respectively)” for “C-terminus”

Row | Compound | detection by the monoclonal antibody [1] | inhibition of epitope recognition by the monoclonal antibody (in words) [2] | further results
1 | ELDYHR | can be detected by the monoclonal antibody | – | –
2 | DLDYRR | can be detected by the monoclonal antibody | – | –
3 | EIDYHR | can be detected by the monoclonal antibody | – | –
4 | DVDYHR | can be detected by the monoclonal antibody | – | –
5 | DVDYRR | can be detected by the monoclonal antibody | – | –
6 | DIDYHR | can be detected by the monoclonal antibody | – | –
7 | EVDYHR | can be detected by the monoclonal antibody | – | –
8 | N=C(N)NCCC[C@H](NC(=O)[C@H](Cc1ccccc1)NC(=O)[C@H](CCC(=O)O)NC(=O)[C@H](Cc1ccc(O)cc1)NC(=O)[C@@H](N)CC(=O)O)C(=O)NCC(=O)N[C@@H](CS)C(=O)O [Peptide 3007, DYEFRG] | – | block epitope recognition | Inhibitory capacity of mimotopes [2]: strong
9 | SAEFRAT [Peptide 4016] | – | strongly block epitope recognition | inhibition (s/m/—) [2]: s
10 | DLDYHR | can be detected by the monoclonal antibody | – | –
11 | WHWSWR [Peptide 4004] | – | not able to inhibit binding | Inhibitory capacity of mimotopes [2]: none
12 | N=C(N)NCCC[C@H](NC(=O)[C@H](CC1CCCCC1)NC(=O)[C@H](CCC(=O)O)NC(=O)[C@H](CCCCN)NC(=O)[C@@H](N)CC(=O)O)C(=O)N[C@@H](CS)C(=O)O [Peptide 4064, DKEC(Cha)R] | – | block epitope recognition | inhibition (s/m/—) [2]: m
13 | DIDYRR | can be detected by the monoclonal antibody | – | –
